The results in this text go back to publication PMC12424289, “Programmable Nanostructure Assembly of a Paclitaxel Derivative Enables Tunable Anticancer Therapy via Hydrogen Bond Engineering” (ACS Nano, 2025).

Molecules are shown by their SMILES.

One data set has as its system tubulin. The data set is described as follows: Isothermal titration calorimetry with tubulin. Type of data set: binding. Conditions: tubulin 180 μM titrated into 25 μM compound. How it is done:
ITC experiments were performed using a Nano-ITC (TA Instruments, USA) with all samples degassed for 8 min prior to measurement. Experiments were conducted under stirring at 350 rpm. To account for background signals, control experiments were conducted and subtracted from the test data. The resulting heat values were analyzed using an independent model to extract thermodynamic parameters. For tubulin binding studies, solutions were prepared in PEM buffer containing 5% (v/v) DMSO. In each experiment, 400 μL of the […] was loaded into the sample cell, and 400 μL of PEM buffer with 5% (v/v) DMSO was placed in the reference cell. Tubulin solution (180 μM) was titrated into the sample cell in 25 injections of 2 μL each at 4 °C. A control titration of tubulin into PEM buffer (5% DMSO) was performed to account for dilution effects. To assess interactions between PTP and excipients, PTP dispersions (25 μM) were loaded into the sample cell, and water was used in the reference cell. PEG400 solution (6.0 mg·mL^–1) was titrated into a 2.0 mg·mL^–1 PTP dispersion, and HA (2.7 mg·mL^–1) into a 1.0 mg·mL^–1 PTP dispersion. Both titrations were performed at 25 °C with 25 injections of 2 μL each. Control experiments were performed by titrating PEG400 or HA into water to correct for nonspecific heat effects.
(ITC needs no label: the signal is the heat of the interaction.)

Data set [1] can be described thus: Pharmacokinetics after intraperitoneal injection. The class given is in vivo. Conditions: male, Sprague-Dawley, rat, plasma; rats, single ip; PTP@HA 100.0 mg·kg^–1 PTP, PTX solution 12.0 mg·kg^–1. The protocol: For plasma samples, 50 μL of plasma was mixed with 100 μL of a docetaxel acetonitrile solution (15 ng·mL^–1) for protein precipitation. The mixture was vortexed and then centrifuged at 4 °C, 17 000 rpm for 30 min. For tissue samples, mice were euthanized at specified time points, and tissues were harvested and rinsed with saline. Two kidneys, the entire heart, spleen, lung, tumor, and 150–200 mg of liver were placed in grinding tubes. Saline was added at a ratio of 1:5 (m/v), and the tissues were ground using a freezing grinder (Jingxin, China) at 4 °C. Next, 100 μL of docetaxel acetonitrile solution (15 ng·mL^–1) was added to 50 μL of the tissue homogenate. After vortex mixing, the mixture was centrifuged at 4 °C, 17 000 rpm for 30 min. The supernatants for both plasma and tissue samples were analyzed by LC-MS as described below.
The concentrations of PTP and PTX in plasma and tissue samples were determined using liquid chromatography–mass spectrometry (LC-MS) with a G6470A system (Agilent, USA) equipped with a C18 column (2.1 × 100 mm, 2.7 μm, Agilent, USA). […]
The PTP@HA hydrogel, containing PTP at a concentration of 5.0 mg·mL^–1, was prepared by adding HA saline solution (20.0 mg·mL^–1) to solid PTP, followed by vortexed for 1 min. […] Plasma concentrations of both PTP and PTX were subsequently quantified using LC-MS (G6470A, Agilent, USA).

Data set [2] deals with human ovarian SKOV3 cells. Nature of the data set: CCK8 antiproliferation assay, SKOV3. The class given is cell-based. The settings on record: SK-OV-3, SKOV3, 48 h treatment. How it is done:
(§1) The mouse breast cancer cell line 4T1 and the human ovarian cancer cell line SKOV3 were cultured in RPMI 1640 medium supplemented with 10% fetal bovine serum, 100 units·mL^–1 penicillin, and 100 μg·mL^–1 streptomycin. The human lung cancer cell line A549 and the luciferase-expressing human colorectal carcinoma cell line HCT116-Luc were cultured in high-glucose DMEM medium supplemented with 10% fetal bovine serum, 100 units·mL^–1 penicillin, and 100 μg·mL^–1 streptomycin. All cell lines were maintained at 37 °C in a Steri-Cycle 371 incubator (Thermo Scientific, USA) with a humidified atmosphere of 5% CO2. Only cells between passages 5 and 15 were used for cell-based experiments.
(§2) The antiproliferative activity of PTP was evaluated using the Cell Counting Kit-8 (CCK8) assay. PTX solution served as a positive control. Cell suspensions were prepared at a density of 3 × 10^4 cells·mL^–1 and seeded in 96-well plates at a volume of 100 μL per well. The plates were incubated for 24 h to allow cell attachment and growth. Subsequently, the culture media were replaced with fresh media containing varying concentrations of PTX or PTP solutions (100 μL per well), and the cells were incubated for an additional 48 h (n = 3). Control wells received fresh culture media alone (n = 3). […] Finally, the absorbance was measured at 450 nm using a microplate reader (Synergy H1, BioTek, USA). […]

Data set [3] relates to human colon HCT116-Luc cells. The data set is described as follows: CCK8 antiproliferation assay, HCT116-Luc. Type of data set: cell-based. The settings on record: 48 h treatment. How it is done: as §1, §2
The next data set has as its system Balb/c mice. The data set is described as follows: Maximum tolerated dose / survival in mice. The settings on record: iv, PTX 33.0 mg·kg^–1, after 14 days. Type of data set: in vivo, mouse.
The subject of another data set is human lung A549 cells. Nature of the data set: CCK8 antiproliferation assay, A549. Conditions: A549, 48 h treatment. Type of data set: cell-based. The protocol: as §1, §2
In general terms: Tetrazolium dyes change colour on reduction, which living cells bring about.

In another data set the test system is mouse breast 4T1 cells. The data set is described as follows: CCK8 antiproliferation assay, 4T1. Type of data set: cell-based. Conditions: 4T1, 48 h treatment. How it is done: as §1, §2

For orientation: MRT means a mean duration of stay, worked out from the concentration-time curve. For orientation: half-life means how long it takes for the measured level to halve. A low value points to rapid decline. Usually IC50 stands for the midpoint of a concentration-inhibition curve. On to `CC(=O)O[C@H]1C(=O)[C@@]2(C)[C@H]([C@H](OC(=O)c3ccccc3)[C@]3(O)C[C@H](OC(=O)[C@H](O)[C@@H](NC(=O)c4ccccc4)c4ccccc4)C(C)=C1C3(C)C)[C@]1(OC(C)=O)CO[C@@H]1C[C@@H]2O` [PTX, Paclitaxel], for which the “molar ratio of tubulin to compound” value in the data set with tubulin (ITC) came out at 1.5. Further, in the data set with tubulin (5% DMSO, 4 °C), the “Gibbs free energy change (ΔG)” value is −27.0 kJ·mol^–1. Also, in data set [1], the MRT stood at 4.4 h. This compound gave a half-life in data set [1] of 3.2 h. Also, the IC50 was found to be 0.0374 µM in data set [2], 0.0131 µM in data set [3], 0.0113 µM in the data set on human lung A549 cells and 0.0259 µM in the data set with mouse breast 4T1 cells. This compound also displayed a survival with Balb/c mice of 83.3%.
